{"source": "paper PMC3613864", "about": "(Cell, 2012)", "key": {"CMK cells [1]": {"system": "CMK cells", "assay": "Polyploidization, proliferation, apoptosis and CD41/CD42 expression in CMK cells", "type": "cell-based, human"}, "tg-ERG cells": {"system": "tg-ERG cells", "assay": "AMKL cell line derived from ERG transgenic mice", "type": "cell-based", "details": "tg-ERG cells (data not shown)"}, "[2]": {"system": "murine bone marrow-derived megakaryocytes", "assay": "Primary murine hematopoietic progenitor cells cultured with THPO", "type": "cell-based", "details": "primary mouse bone marrow cells cultured ex vivo"}, "6133/MPL cells [3]": {"system": "6133/MPL cells", "assay": "6133/MPL cells in vitro", "type": "cell-based", "details": "6133/MPL murine cell line"}, "6133/MPL cells [4]": {"system": "6133/MPL cells", "assay": "Transplantation of drug-pre-treated 6133/MPL cells into mice", "type": "in vivo, C57Bl/6 mice"}, "6133/MPL cells [5]": {"system": "6133/MPL cells", "assay": "Drug treatment of mice transplanted with 6133/MPL cells", "type": "in vivo, C57Bl/6 mice"}, "[6]": {"system": "human CD41+ non-DS-AMKL blasts", "assay": "Human non-DS-AMKL blasts cultured ex vivo", "type": "cell-based", "details": "0.1 µM, 6 days"}, "AURKA": {"target": "T1, AURKA (Homo sapiens, UniProt O14965)", "T1 sequence (O14965 1-403)": "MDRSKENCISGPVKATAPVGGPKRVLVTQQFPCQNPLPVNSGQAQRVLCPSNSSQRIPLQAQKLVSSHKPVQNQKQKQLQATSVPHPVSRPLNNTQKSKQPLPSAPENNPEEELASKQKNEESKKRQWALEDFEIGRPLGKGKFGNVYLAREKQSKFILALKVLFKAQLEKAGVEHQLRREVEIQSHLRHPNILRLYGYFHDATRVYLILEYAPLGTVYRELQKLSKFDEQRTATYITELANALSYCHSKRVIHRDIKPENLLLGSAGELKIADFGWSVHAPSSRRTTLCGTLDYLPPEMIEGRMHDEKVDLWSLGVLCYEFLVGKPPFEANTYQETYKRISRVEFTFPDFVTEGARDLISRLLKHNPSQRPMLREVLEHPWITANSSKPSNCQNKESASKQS", "assay": "Phosphorylation of Aurora kinases in CMK cells by Western blot", "type": "cell-based"}, "AURKB": {"target": "AURKB (Homo sapiens, UniProt Q96GD4)", "sequence (Q96GD4 whole entry)": "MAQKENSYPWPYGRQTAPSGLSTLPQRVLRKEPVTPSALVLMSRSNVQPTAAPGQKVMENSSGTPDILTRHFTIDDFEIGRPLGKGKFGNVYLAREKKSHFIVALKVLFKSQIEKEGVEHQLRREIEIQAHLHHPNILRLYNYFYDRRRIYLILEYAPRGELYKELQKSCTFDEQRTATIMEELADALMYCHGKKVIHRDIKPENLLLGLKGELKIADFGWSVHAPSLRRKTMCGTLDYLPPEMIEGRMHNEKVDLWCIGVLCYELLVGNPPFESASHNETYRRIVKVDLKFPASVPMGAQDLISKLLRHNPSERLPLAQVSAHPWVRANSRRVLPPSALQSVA", "assay": "Phosphorylation of Aurora kinases in CMK cells by Western blot", "type": "cell-based"}, "phospho-histone H3": {"system": "phospho-histone H3", "assay": "Phosphorylation of histone H3 in CMK cells", "type": "cell-based, human"}, "[7]": {"system": "primary human megakaryocytes", "assay": "Primary human megakaryocytes expanded from CD34+ cells", "type": "cell-based"}, "in vivo": {"assay": "in vivo", "details": "C57Bl/6, mouse, plasma, po, 15 mg/kg"}, "AURKA relative to AURKB": {"system": "AURKA relative to AURKB", "details": "ref Gorgun et al., 2010; Manfredi et al., 2011; cited from earlier work"}, "[8]": {"assay": "Oral pharmacokinetics, plasma concentration after a single dose", "details": "single oral administration of 15 mg/kg"}, "CMK cells [9]": {"system": "CMK cells", "type": "cell-based, human", "details": "three-day incubation"}, "402 purified kinases": {"system": "402 purified kinases", "assay": "Ambit KinomeScan kinase binding profile", "details": "of 402 kinases; 5 µM diMF"}, "AMKL-derived cells": {"system": "AMKL-derived cells", "assay": "Phenotype in AMKL-derived cells", "type": "cell-based", "details": "data not shown"}, "[10]": {"system": "leukemia blasts that harbor activated oncogenic forms of KIT, FLT3, and BCR-ABL", "details": "ref Mali et al., 2011; cited from earlier work"}, "[11]": {"details": "CMK cells, 72 hr, Fig 2: K252a, latrunculin B, diMF 5 µM, SU6656 4 µM"}, "[12]": {"details": "1 µM, CMK cells (data not shown)"}, "[13]": {"details": "CMK cells, 0.1 µM paclitaxel 18 hr then compound 2 hr"}}, "note": "Entries after “also recorded” stand apart in the source; their conditions may differ. Where two headings read alike, the source gives them in different places.", "data": [{"molecule": "CN(C)S(=O)(=O)c1ccc2c(c1)/C(=C/c1cc3c([nH]1)CCCC3)C(=O)N2", "note": "[SU6656]", "values": [{"measurement": "apoptosis", "setting": "CMK cells [1]; [11]", "result": "inducing"}, {"measurement": "polyploidization", "setting": "CMK cells [1]; [11]", "result": "inducing"}, {"measurement": "proliferation", "setting": "CMK cells [1]; [11]", "result": "inhibited"}]}, {"molecule": "COc1cc(Nc2ncc3c(n2)-c2ccc(Cl)cc2C(c2c(F)cccc2OC)=NC3)ccc1C(=O)O", "note": "[MLN8237, Alisertib]", "values": [{"measurement": "apoptosis", "setting": "CMK cells [1]; [11]", "result": "induced"}, {"measurement": "polyploidization", "setting": "CMK cells [1]; [11]", "result": "induced robust polyploidization"}, {"measurement": "proliferation", "setting": "CMK cells [1]; [11]", "result": "restricted proliferation"}, {"measurement": "proliferation and megakaryocyte lineage-specific surface marker expression", "setting": "tg-ERG cells", "result": "induced proliferation arrest and megakaryocyte lineage-specific surface marker expression"}, {"measurement": "polyploidization and expression of CD41 and CD42", "setting": "[2]", "result": "induced polyploidization and expression of CD41 and CD42"}, {"measurement": "polyploidization, CD41 and CD42 expression, and apoptosis", "setting": "6133/MPL cells [3]", "result": "increased polyploidization, CD41 and CD42 expression, and apoptosis"}, {"measurement": "animals surviving up to 120 days after transplantation of pre-treated cells", "setting": "6133/MPL cells [4]; 6133/MPL cells pre-treated 24 hr with 1 µM", "result": 80, "unit": "%"}, {"measurement": "infiltration of leukemic cells (liver, lung)", "setting": "6133/MPL cells [5]; 15 mg/kg", "result": "striking reduction of infiltration of leukemic cells"}, {"measurement": "peripheral white blood cell count, spleen and liver weights", "setting": "6133/MPL cells [5]; 15 mg/kg for 2 weeks vs vehicle", "result": "significantly reduced peripheral white blood cell count and spleen and liver weights"}, {"measurement": "polyploidization and proliferation of human non-DS AMKL cells", "setting": "[6]", "result": "induced both polyploidization and proliferative arrest"}, {"measurement": "AURKA phosphorylation / autophosphorylation", "setting": "AURKA", "result": "reduced AURKA autophosphorylation"}, {"measurement": "autophosphorylation of AURKA", "setting": "AURKA", "result": "inhibited autophosphorylation of AURKA"}, {"measurement": "autophosphorylation of AURKB", "setting": "AURKB; 0.1 µM, CMK cells", "result": "but not AURKB"}, {"measurement": "phospho-histone H3 level", "setting": "phospho-histone H3", "result": "accumulation of phospho-histone H3"}, {"measurement": "polyploidization of primary human megakaryocytes", "setting": "[7]", "result": "induced robust and selective polyploidization"}, {"measurement": "Cmax", "setting": "in vivo", "result": 34.8, "unit": "µM"}, {"measurement": "Tmax", "setting": "in vivo", "result": 0.5, "unit": "h"}, {"measurement": "half-life", "setting": "in vivo", "result": 3.1, "unit": "h"}, {"measurement": "selectivity for AURKA relative to AURKB in cells", "setting": "AURKA relative to AURKB", "result": 200, "unit": "fold"}, {"measurement": "bioavailability", "setting": "[8]", "result": "excellent bioavailability"}, {"measurement": "mean plasma concentrations for at least 12 hr", "setting": "[8]", "result": "above 0.5 µM"}]}, {"molecule": "COC(=O)[C@@]1(O)C[C@H]2O[C@]1(C)n1c3ccccc3c3c4c(c5c6ccccc6n2c5c31)C(=O)NC4", "note": "[K252a]", "values": [{"measurement": "screening positive: increased fraction of cells with DNA content beyond a cutoff (between 4N and 8N) compared to DMSO", "setting": "CMK cells [9]", "result": "identified"}, {"measurement": "apoptosis", "setting": "CMK cells [1]; [11]", "result": "inducing"}, {"measurement": "polyploidization", "setting": "CMK cells [1]; [11]", "result": "inducing"}, {"measurement": "proliferation", "setting": "CMK cells [1]; [11]", "result": "inhibited"}]}, {"molecule": "O=S(=O)(c1cccc2cnccc12)N1CCCNCC1", "note": "[fasudil]", "values": [{"measurement": "number of kinases whose binding to the immobilized ligand was inhibited by more than 65%", "setting": "402 purified kinases", "result": 27}, {"measurement": "activity / phenotype in AMKL-derived cells compared with diMF", "setting": "AMKL-derived cells", "result": "did not fully recapitulate the strong phenotype; also recorded: lack of activity"}, {"measurement": "growth of leukemia cells in vivo and in vitro", "setting": "[10]", "result": "restricted the growth"}]}, {"molecule": "C=C1[C@@H](C)[C@H]2[C@H](Cc3ccccc3)NC(=O)[C@]23OC(=O)/C=C/[C@H](O)CCC[C@@H](C)C/C=C/[C@H]3[C@@H]1O", "note": "[cytochalasin B]", "values": [{"measurement": "screening positive: increased fraction of cells with DNA content beyond a cutoff (between 4N and 8N) compared to DMSO", "setting": "CMK cells [9]", "result": "positives"}]}, {"molecule": "JAK3 inhibitor VI", "values": [{"measurement": "screening positive: increased fraction of cells with DNA content beyond a cutoff (between 4N and 8N) compared to DMSO", "setting": "CMK cells [9]", "result": "identified"}, {"measurement": "apoptosis", "setting": "CMK cells [1]", "result": "inducing"}, {"measurement": "polyploidization", "setting": "CMK cells [1]", "result": "inducing; also recorded: Induction of CMK polyploidization"}]}, {"molecule": "c1nc2nc(Nc3ccc(N4CCOCC4)cc3)nc(NC3CCCCC3)c2[nH]1", "note": "[reversine]", "values": [{"measurement": "screening positive: increased fraction of cells with DNA content beyond a cutoff (between 4N and 8N) compared to DMSO", "setting": "CMK cells [9]", "result": "identified"}, {"measurement": "apoptosis", "setting": "CMK cells [1]; [11]", "result": "inducing"}, {"measurement": "polyploidization", "setting": "CMK cells [1]; [11]", "result": "inducing"}, {"measurement": "proliferation", "setting": "CMK cells [1]; [11]", "result": "inhibited"}]}, {"molecule": "CCN(CCO)CCCOc1ccc2c(Nc3cc(CC(=O)Nc4cccc(F)c4)[nH]n3)ncnc2c1", "note": "[AZD1152-HQPA]", "values": [{"measurement": "apoptosis", "setting": "CMK cells [1]; [11]", "result": "induced"}, {"measurement": "polyploidization", "setting": "CMK cells [1]; [11]", "result": "induced robust polyploidization"}, {"measurement": "proliferation", "setting": "CMK cells [1]; [11]", "result": "restricted proliferation"}, {"measurement": "proliferation and megakaryocyte lineage-specific surface marker expression", "setting": "tg-ERG cells", "result": "induced proliferation arrest and megakaryocyte lineage-specific surface marker expression"}, {"measurement": "polyploidization, CD41 and CD42 expression, and apoptosis", "setting": "6133/MPL cells [3]", "result": "increased polyploidization, CD41 and CD42 expression, and apoptosis"}, {"measurement": "leukemia development after transplantation of pre-treated cells", "setting": "6133/MPL cells [4]; 6133/MPL cells pre-treated 24 hr with 3 µM", "result": "failed to significantly interfere with leukemia development"}, {"measurement": "phospho-AURKA", "setting": "AURKA; [12]", "result": "complete loss of phospho-AURKA and AURKB"}, {"measurement": "AURKA phosphorylation / autophosphorylation", "setting": "AURKA; [13]", "result": "reduced phosphorylation of both Aurora A and B kinases"}, {"measurement": "phospho-AURKB", "setting": "AURKB; [12]", "result": "complete loss of phospho-AURKA and AURKB"}, {"measurement": "AURKB phosphorylation", "setting": "AURKB; [13]", "result": "reduced phosphorylation of both Aurora A and B kinases"}, {"measurement": "phospho-histone H3 level", "setting": "phospho-histone H3", "result": "reduction in phospho-histone H3"}, {"measurement": "polyploidization of primary human megakaryocytes", "setting": "[7]", "result": "induced robust and selective polyploidization"}]}, {"molecule": "C/C1=C/C(=O)O[C@@H]2C[C@@H](CC[C@H](C)/C=C\\CC1)O[C@@](O)([C@@H]1CSC(=O)N1)C2", "note": "[latrunculin B]", "values": [{"measurement": "screening positive: increased fraction of cells with DNA content beyond a cutoff (between 4N and 8N) compared to DMSO", "setting": "CMK cells [9]", "result": "positives"}, {"measurement": "apoptosis", "setting": "CMK cells [1]; [11]", "result": "inducing"}, {"measurement": "polyploidization", "setting": "CMK cells [1]; [11]", "result": "inducing"}, {"measurement": "proliferation", "setting": "CMK cells [1]; [11]", "result": "inhibited"}]}]}
